Laboratory results: patent publication US20240239790A1, “7-Morpholino-1,6-Naphthyridin-5-yl Derivatives and Pharmaceutical Compositions Thereof Useful as DNA-PK Inhibitor” (adMare Therapeutics Society, priority 2021, published 2024)
pEC50, pIC50: −log10 of the molar value. Where two headings read alike, the source gives them in different places.

What was measured:
[1] = Microsomal Stability Assay, human liver microsomes; type: in vitro ADME; conditions: for microsomal CLint at 0.1 uM: both sexes, pH 7.4
Description: (§1) Samples were then mixed and centrifuged. Supernatants were used for HPLC-MS/MS analysis. […] Peak areas corresponding to the test compound were recorded.

[2] = Microsomal Stability Assay, mouse liver microsomes; type: in vitro ADME; conditions: for microsomal CLint at 0.1 uM: male, CD-1, pH 7.4
Description: as §1

[3] = target: T1, DNA-PK phosphorylation at Serine 2056 (Homo sapiens, UniProt P78527); assay: Cellular Assay for Inhibition of DNA-PK Phosphorylation at Serine 2056 in FaDu cells (sandwich ELISA, neocarzinostatin); type: cell-based; conditions: pSer2056 DNA-PK
T1 construct: FaDu cells were purchased from ATCC; host or cells: FaDu
Outline: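 pSer2056 and total DNA-PK were measured by sandwich ELISA in BCA-normalised FaDu lysates. Cells had 1 h compound exposure (0.3% DMSO), then 2 h with 1 μg/mL final neocarzinostatin. IC50 was fitted (variable slope) to % inhibition scaled against NCS-stimulated and DMSO-only controls.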

DNA-PK = target: T2, DNA-PK (Homo sapiens, UniProt P78527); assay: DNA-PK Assay for Biochemical Enzymatic Inhibition (ADP Glo Kinase assay); conditions: DNA-PK enzyme
T2 construct: purchased Invitrogen PR9107A
Outline: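 Human DNA-PK (25 ng) preincubated 15 min with compounds (ten three-fold dilutions) in HEPES pH 7.5, MgCl2, KCl, calf thymus DNA buffer, then substrate 434.4 μM and ATP 64.4 μM (final) for 60 min at room temperature. ADP-Glo luminescence; percent inhibition fitted by four-parameter regression for IC50.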

[4] = system: pDNA-PK induction in HCT116 tumour spheroids; assay: Multicellular tumour spheroid + radiation, pDNA-PK (ser2056) inhibition, immunohistochemical endpoint, HCT116; type: cell-based; conditions: Homo sapiens, HCT-116, 20 Gy, 2 hours following radiation, 20% O2
Outline: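 HCT116 spheroids (~0.5 mm) in MEM/10% FBS, 20% O2, 37° C., pre-incubated 1 h with compound (10 or 5 μM down to 3.5 nM), irradiated 20 Gy, then 2 h further with compound. Cryosections immunostained for pDNA-PK ser2056; EC50 is concentration halving radiation-induced pDNA-PK.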

FaDu cell line = assay: Prodrug Activation in Hypoxic Stirred Tumour Cell Suspensions; conditions: 10 μM, 4 hours
[5] = system: pH2AX induction in HCT116 ATM-/- multicellular tumour spheroids; assay: Prodrug Radiation Sensitization in Multicellular Tumour Spheroids, inhibition of pH2AX induction following radiation; type: cell-based; conditions: Homo sapiens, HCT-116, 20 Gy
Outline: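 Endpoint: pH2AX (ser 139) or pDNA-PK (ser 2056) in cryosections fixed 1 or 2 h after 20 Gy, comparing oxygenated outer with hypoxic inner layers. Spheroids of ~0.5 mm (HCT116, FaDu; ATM-deficient cells used) held at 20% or 5% O2, 37 °C, stirred. Prodrug range 3.5 nM–10 μM.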

FaDu tumour xenograft = assay: Tumour Growth Delay, FaDu tumour xenograft-bearing animals, compound ± radiation (TGD-ER); type: in vivo; conditions: PO, 30 mpk BID + 10 Gy
Description: FaDu tumour xenograft-bearing animals were monitored for tumour growth and once average tumour size reached approximately 100-250 mm3, animals were assigned to treatment cohorts using stratified randomization. […]
For BID dosing regimens, at 8 h following the first injection, animals were again administered with test compound at the same dose as their previous administration. Animals were weighed and had tumours measured using calipers three times weekly until the endpoint of maximum tumour volume, 1000 mm3, was reached and animals were euthanized. Tumour volumes were calculated according to the equation L×W^2/2 with the length (mm) being the longer axis of the tumour; in the case that no tumour was palpable, tumour volumes were recorded as 0 mm^3.
Data were calculated as tumour growth normalized to day 0 measurements, with time to tumour doubling determined. Average time to tumour doubling for each group was used to determine a Tumour Growth Delay Enhancement Ratio (TGD-ER): the time to doubling for treatment groups were divided by the time to doubling for irradiation-alone groups to determine group-specific TGD-ER values, and these were assigned scores based on defined response ranges: values>2.5=A, 1-2.5=B, <1=C.

[6] = human liver microsomes 0.1 mg/mL, 0.1 uM compound
[7] = mouse liver microsomes 0.1 mg/mL, 0.1 uM compound
[8] = neocarzinostatin 1 μg/mL, Table 1
[9] = Example 9 Study 2, read-out: Spheroid Cell line: HCT116 Immunohistochemical endpoint pDNA-PK inhibition EC50
[10] = Spheroid, Cell Line: HCT115 (so in the source), Example 7, read-out: EC50, Immunohistochemical endpoint, pDNA-PK inhibition
[11] = human liver microsomes, Example 11
[12] = mouse liver microsomes, Example 11
[13] = 5% O2, inner layers, read-out: Prodrug 5% O2 Inner layers EC50
[14] = 5% O2, outer layers, read-out: Prodrug 5% O2 Outer layers EC50
[15] = 20% O2, outer layers, read-out: Prodrug 20% O2 Outer layers EC50

Compound | microsomal CLint at 0.1 uM [1, 6] [µL/min/mg] | Microsomal Stability Human % rem. 60 min ([1]; human liver microsomes) | microsomal CLint at 0.1 uM [2, 7] [µL/min/mg] | Microsomal Stability Mouse % rem. 60 min ([2]; mouse liver microsomes) | pIC50 [3, 8] | pIC50 (DNA-PK; Table 1) | pEC50 [4, 9] | pEC50 [4, 10] | microsomal CLint at 0.1 uM [1, 11] [µL/min/mg] | Microsomal Stability Human % rem. 60 min [1, 11] | microsomal CLint at 0.1 uM [2, 12] [µL/min/mg] | Microsomal Stability Mouse % rem. 60 min [2, 12] | pIC50 ([3]; Table 2) | pIC50 (DNA-PK; Table 2) | further results
c1cnc2cc(N3CCOCC3)nc(O[C@H]3CC[C@@H](Nc4ncc(OCCN5CCNCC5)cn4)CC3)c2c1 [Compound 70, N-((1s,4s)-4-((7-Morpholino-1,6-naphthyridin-5-yl)oxy)cyclohexyl)-5-(2-(piperazin-1-yl)ethoxy)pyrimidin-2-amine] | > 116 | F (% remaining = 25-50%) | > 116 | F (% remaining = 25-50%) | > 7.00 | > 9.30 | 5.00 to 6.00 | 5.00 to 6.00 | – | – | – | – | – | – | –
CN(C)C(=O)COc1cnc(N[C@H]2CC[C@@H](Oc3nc(N4CCOCC4)cc4ncc(OCc5cnc([N+](=O)[O-])n5C)cc34)CC2)nc1 [LFA114, N,N-Dimethyl-2-[2-[[4-[[3-[(3-methyl-2-nitro-imidazol-4-yl)methoxy]-7-morpholino-1,6-naphthyridin-5-yl]oxy]cyclohexyl]amino]pyrimidin-5-yl]oxy-acetamide] | – | – | – | – | – | – | – | – | < 116 | E (% remaining = 0-25%) | > 116 | E (% remaining = 0-25%) | 4.52 to 5.00 | 6.82 to 8.00 | Fraction of prodrug converted to active form, Hypoxic 0.2% O2 (FaDu cell line): A (A is 0.15 to 1); Fraction of prodrug converted to active form, Oxic 5% O2 (FaDu cell line): B (B is 0.05 to 0.15); pEC50 [5, 13]: 6.30 to 8.00; pEC50 [5, 14]: 6.00 to 6.30; pEC50 [5, 15]: 5.00 to 6.00
Cn1c(CN(c2cnc3cc(N4CCOCC4)nc(OC4CCC(NC(=O)c5ncccn5)CC4)c3c2)S(C)(=O)=O)cnc1[N+](=O)[O-] (stereo not drawn) [LFA016, N-[4-[[3-[(3-Methyl-2-nitro-imidazol-4-yl)methyl-methylsulfonyl-amino]-7-morpholino-1,6-naphthyridin-5-yl]oxy]cyclohexyl]pyrimidine-2-carboxamide] | – | – | – | – | – | – | – | – | < 116 | F (% remaining = 25-50%) | < 116 | G (% remaining = 50-75%) | 4.52 to 5.00 | 6.82 to 8.00 | Fraction of prodrug converted to active form, Hypoxic 0.2% O2 (FaDu cell line): C (C is 0.02 to 0.05); Fraction of prodrug converted to active form, Oxic 5% O2 (FaDu cell line): D (D is 0 to 0.02); pEC50 [5, 13]: 5.00 to 6.00; pEC50 [5, 14]: 5.00 to 6.00; pEC50 [5, 15]: 4.00 to 5.00
CN1CCN(CCOc2cnc(N[C@H]3CC[C@@H](Oc4nc(N5CCOCC5)cc5ncc(NS(C)(=O)=O)cc45)CC3)nc2)CC1 [LFA031, N-[5-[4-[[5-[2-(4-Methylpiperazin-1-yl)ethoxy]pyrimidin-2-yl]amino]cyclohexoxy]-7-morpholino-1,6-naphthyridin-3-yl]methanesulfonamide] | – | – | – | – | – | – | – | – | – | – | – | – | – | – | TGD-ER Range Score (FaDu tumour xenograft): B (1-2.5=B)
O=S(=O)(Nc1cnc2cc(N3CCOCC3)nc(O[C@H]3CC[C@@H](Nc4ncccn4)CC3)c2c1)C1CC1 [Compound 186, N-(7-morpholino-5-(((1s,4s)-4-(pyrimidin-2-ylamino)cyclohexyl)oxy)-1,6-naphthyridin-3-yl)cyclopropanesulfonamide] | > 116 | F (% remaining = 25-50%) | < 116 | G (% remaining = 50-75%) | > 7.00 | 9.00 to 9.30 | 5.00 to 6.00 | 5.00 to 6.00 | – | – | – | – | – | – | –
CS(=O)(=O)NCCOc1cnc(N[C@H]2CC[C@@H](Oc3nc(N4CCOCC4)cc4ncccc34)CC2)nc1 [Compound 67] | > 116 | E (% remaining = 0-25%) | < 116 | G (% remaining = 50-75%) | > 7.00 | > 9.30 | 6.30 to 8.00 | 6.00 to 6.30 | – | – | – | – | – | – | –
CN(C)C(=O)COc1cnc(N[C@H]2CC[C@@H](Oc3nc(N4CCOCC4)cc4ncc(NS(C)(=O)=O)cc34)CC2)nc1 [LFA012, 2-[2-[[4-[[3-(Methanesulfonamido)-7-morpholino-1,6-naphthyridin-5-yl]oxy]cyclohexyl]amino]pyrimidin-5-yl]oxy-N,N′-dimethyl-acetamide] | – | – | – | – | – | – | – | – | – | H (% remaining = 75-100%) | – | H (% remaining = 75-100%) | 6.00 to 7.00 | > 9.30 | Microsomal Stability Human Clint [1, 11]: A (Clint < 116 uL/min/mg); Microsomal Stability Mouse Clint [2, 12]: A (Clint < 116 uL/min/mg)
CN(C)C(=O)COc1cnc(N[C@H]2CC[C@@H](Oc3nc(N4CCOCC4)cc4ncc(O)cc34)CC2)nc1 [LFA113, 2-[2-[[4-[(3-Hydroxy-7-morpholino-1,6-naphthyridin-5-yl)oxy]cyclohexyl]amino]pyrimidin-5-yl]oxy-N,N-dimethyl-acetamide] | – | – | – | – | – | – | – | – | < 116 | H (% remaining = 75-100%) | < 116 | F (% remaining = 25-50%) | > 7.00 | > 9.30 | –
CN(C)C(=O)COc1ccnc(N[C@H]2CC[C@@H](Oc3nc(N4CCOCC4)cc4ncccc34)CC2)n1 [Compound 56, N,N-dimethyl-2-((2-(((1s,4s)-4-((7-morpholino-1,6-naphthyridin-5-yl)oxy)cyclohexyl)amino)pyrimidin-4-yl)oxy)acetamide] | > 116 | E (% remaining = 0-25%) | > 116 | E (% remaining = 0-25%) | 6.00 to 7.00 | > 9.30 | 6.00 to 6.30 | 6.00 to 6.30 | – | – | – | – | – | – | –
CN(C)C(=O)COc1cnc(C(=O)N[C@H]2CC[C@@H](Oc3nc(N4CCOCC4)cc4ncccc34)CC2)nc1 [Compound 125] | < 116 | H (% remaining = 75-100%) | < 116 | H (% remaining = 75-100%) | 6.00 to 7.00 | 9.00 to 9.30 | 5.00 to 6.00 | 5.00 to 6.00 | – | – | – | – | – | – | –
